# Results reported in a melting point compilation (Tetko et al.; mined from patent text by program, amines drawn as free bases though some values may be those of a salt).
row,Structure (SMILES),melting point
1,NC(=O)C1=C(S(=O)Cc2ccccc2)CCC1 (centres undefined),174 °C
2,CSc1ccc(-c2nn(Cc3ccccc3)c(=S)cc2-c2ccc(Cl)cc2)cc1,103 °C
3,CC1=NOC(c2c(S(C)(=O)=O)ccc(C(=O)c3cnn(C4CC4)c3O)c2Cl)C1 (centres undefined),> 220 °C
4,COc1cc(C(=O)N[C@@H]2c3cc(OC(F)(F)F)ccc3OC(C)(C)[C@H]2O)c([N+](=O)[O-])cc1OC,97 °C
5,O=C(Nc1c(C(O)(C(F)(F)F)C(F)(F)F)ccc2ccccc12)c1ccc(I)cc1,189 to 190 °C
6,CCC1(C(=O)C(=O)NC(C)(C)C)CC1,37.5 to 39 °C
7,CC(=O)OC1CSC(Oc2cncc(-c3ccc(C)c(F)c3)c2)C(OC(C)=O)C1OC(C)=O (centres undefined),159 °C
8,CN(CCCCC(=O)O)c1ccc(Br)cc1C=O,72 to 73 °C
9,CSc1cccc2nc(SCCN3CCN(CC(=O)Nc4c(C(C)C)cccc4C(C)C)CC3)oc12,120 to 121 °C
10,NC(CCCBr)C(=O)c1ccccc1 (centres undefined),74 to 76 °C
11,Cc1cnc(I)c(OCc2ccccc2)c1,83 to 85 °C
12,O=C1c2cc(Br)cc(Br)c2CCC1n1ccnc1 (centres undefined),180 to 184 °C
13,Cc1cc(C(=O)O)ccc1-c1ccccc1C(F)(F)F,171 to 174 °C
14,O=C1NNC(C=Cc2ccc([N+](=O)[O-])cc2)CS1 (centres undefined),231 to 240 °C
15,Cn1nc(-c2ccccc2)c(O)c1-c1ccccc1,157 to 160 °C
16,CC(=O)OCC(ON1C(C)(C)CC(OC(=O)C(C)(C)C)CC1(C)C)c1ccccc1 (centres undefined),102 to 103 °C
17,Cc1cc(-n2c(C)ccc2-c2ccc(S(C)(=O)=O)cc2)ccc1-c1ccco1,160 to 162 °C
18,O=C1OC(=Cc2c[nH]c3ccccc23)C(=O)N1Cc1cc(C(F)(F)F)cc(C(F)(F)F)c1,145 to 146 °C
19,CCn1c(COCc2ccc(OC)cc2)nc(C(C)C)c1Sc1cc(Cl)cc(Cl)c1,120 to 121 °C
20,Oc1cc(O)nc(C2CC2)n1,> 290 °C
21,Cc1cc(Br)c(Cl)c(C(=O)O)c1,160 °C
22,COC(=O)c1ccc(OC(=O)c2ccccc2C(=O)Oc2ccc(C(=O)OC)cc2)cc1,123 to 125 °C
23,N#Cc1ccc(C(=O)NNc2ccc(NC(=S)Nc3ccccc3)cc2)cc1,184 to 185 °C
24,CC12CCC3c4ccc(OC(=O)c5cccnc5)cc4CCC3C1CCC2OC(=O)c1cccnc1 (centres undefined),148 to 150 °C
25,COc1ccc(N2CCOCC2)c2sc(-c3ncc(-c4sc5ccccc5c4C)[nH]3)nc12,213 to 215 °C

row,Structure (SMILES),melting point
1,Cc1nc(Cc2ccc(NC(=O)/C=C/c3cnn(C)c3-c3ccc(F)cc3)cc2)cs1,192 to 193 °C
2,COc1ccc(C2CCc3cc(OC)ccc3C2C#N)cc1 (centres undefined),92 °C
3,O=C(CCC(F)(F)F)c1c(O)c2cccnc2n(-c2ccccc2)c1=O,217 to 220 °C
4,NC(=O)CCC(=O)Nc1c(C(=O)c2ccccc2)[nH]c2cc(Cl)ccc12,258 to 263 °C
5,CCC(CC)N(Cc1ccc(S(C)(=O)=O)cc1)S(=O)(=O)c1ccc(Cl)cc1,166 to 168 °C
6,COC(=O)[C@H]1[C@H](c2ccc3c(c2)OCO3)c2ccc(O)cc2[C@@H]1c1ccc(OC)cc1 (racemic),187 to 188 °C
7,CCOc1nc(OCC)nc(-n2nc(SC)nc2N)n1,201 °C
8,COC(=O)c1ccccc1-c1ncc(-c2cccc(C(F)(F)F)c2)o1,92.5 to 94 °C
9,CC(C)(C)c1cc2c(cc1O)OC(C(=O)O)=CO2,144 °C
10,COc1cc(C=CC(=O)O)ccc1NC(C)=O,222 to 230 °C
11,COc1cc2c(cc1O)C(Cc1cc(Cl)ccc1[N+](=O)[O-])N(C)CC2 (centres undefined),123 to 126 °C
12,O=C(O)CCc1cccc(C(=O)c2ccccc2)c1,70 °C
13,O=C(COc1ccc(-c2c(Cl)c(CN3C(=O)CCC3=O)nc3sc4c(c23)CCS(=O)C4)cc1)NCc1ccccc1 (centres undefined),220 to 221 °C
14,CSc1ccc(C[C@@H](NC(=O)OCc2ccccc2)[C@H](O)C(=O)O)cc1,174 to 177 °C
15,CC(=O)c1nc(-c2ccncc2C)[nH]c1C,185 to 187 °C
16,CC(C)(c1ccccc1)C(S)C(=O)O (centres undefined),70 to 73 °C
17,Cc1ccccc1N1CC(=O)N(C)C(=O)N1,147 to 148 °C
18,O=C(O)c1c(Br)ccc(OCc2ccccc2Cl)c1OCc1ccccc1Cl,156 to 158 °C
19,O=C(O)c1ccc2oc(-c3ccc(Cl)c(Cl)c3)cc2c1,> 260 °C
20,N#CC(=NO)c1cc(F)ccc1F,64 to 67 °C
21,CC1CC(C)(C)c2cccc(NC(=O)c3cn(C)nc3C(F)F)c21 (centres undefined),131 to 134 °C
22,O=C1CC2(CCN(Cc3ccccc3)CC2)C(=O)N1OCc1ccccc1,146 to 152 °C
23,CCCCCc1cnc(N2CCC(c3ccc(COc4ccc(S(C)(=O)=O)cc4)nc3)CC2)nc1,154 to 157 °C
24,BrCCCCCCCn1c(-c2ccccc2)nc(-c2ccccc2)c1-c1ccccc1,69 to 71 °C
25,CC(C)Oc1nsc(N)c1C#N,146 to 148 °C

row,Structure (SMILES),melting point
1,Nc1nc(N2CCNCC2)c2nc(-c3ccccc3)c(N)nc2n1,150 to 155 °C
2,O=C(Oc1ccccc1)N1CCC2(CC1)SC(c1ccc(F)cc1)c1ccccc12 (centres undefined),200 to 201 °C
3,O=c1ccn(-c2ccc(OC(F)F)cc2)nc1-c1ccnn1-c1ccccc1,175 to 176 °C
4,O=S(=O)(c1ccc(F)cc1)N1CCOCC1,106 to 107 °C
5,CCOC(=O)CN1C(=O)Nc2cccc(Cl)c2C1C (centres undefined),143 to 144 °C
6,N#Cc1[nH]c2ccc(C(=O)O)cc2c1-c1ccccc1,302 to 304 °C
7,CC1(C)CCC(C)(C)c2cc([N+](=O)[O-])c(O)cc21,139 °C
8,COc1cccc(-c2coc3ccc(-c4nnc(C)o4)cc23)c1,127 to 128 °C
9,CCc1nc2c(N)nc3ccccc3c2n1CC#Cc1ccc(OC)cc1,179 to 181 °C
10,Cc1ccccc1NC(=O)CN1CC2CCC(C1)N2S(=O)(=O)c1ccccc1Cl,170 to 171 °C
11,COc1ccc2c(c1)CCc1c(cccc1C(=O)O)S2,185 to 187 °C
12,COc1cc(C(C)(C)CC(C)(C)C)c(OC)cc1C(=O)CCC(=O)O,142 °C
13,COc1cc2c(Nc3ccc(Sc4ccccn4)cc3)c(C#N)cnc2cc1N1CCC(N2CCCC2)CC1,182 to 184 °C
14,COC1C(O)C(CO)OC1n1cnc2c(=O)[nH]c(N)nc21 (centres undefined),236 to 238 °C
15,Fc1ccc(-c2cc3ccccc3n2-c2ccccc2)cc1,126 to 128 °C
16,O=C(c1ccc(Cl)cc1)c1cc(-c2ccc(Cl)cc2)c(N2CCOCC2)s1,145 to 149 °C
17,CC(=O)N1CCN=C1Nc1cc(C)nn1-c1ccc(F)cc1,189 to 191 °C
18,CCC1(O)CCC2C3CCC4CC(=O)CC(C)C4(C)C3CCC21C (centres undefined),152 °C
19,O=C(O)c1ccc(CNS(=O)(=O)c2ccc(Br)cc2)cc1,268 to 271 °C
20,COC(=O)c1cc(-c2ccc(SC)cc2)nn(CC2CC2)c1=O,100 to 102 °C
21,CN(C)C(=O)C(OCc1ccc(-c2ccc(Cl)cc2)cc1)C(F)(F)F (centres undefined),103 to 107 °C
22,COc1cc2c(cc1OCc1ccccc1)C1Cc3c(Cl)cc(OC)c(OC(=O)c4ccccc4)c3CN1CC2 (centres undefined),170 to 172 °C
23,CCOc1csc2c(=O)c(S(C)=O)cn(C)c12 (centres undefined),210 to 214 °C
24,O=c1[nH]c2ccc(Br)cc2c(=O)n1CCS,334 to 336 °C
25,Cc1cc(N)c(C(=O)O)cc1F,201 to 202 °C

row,Structure (SMILES),melting point
1,CC(C)n1nc(-c2sc(NC(=O)c3ccc(Cn4ccnc4)cc3)nc2-c2ccccc2)ccc1=O,> 250 °C
2,CN(CCNc1ccc2c3c(c4c(OCc5ccccc5)ccc(OCc5ccccc5)c4cc13)NN2CCN(CCO)Cc1ccccc1)Cc1ccccc1,147 to 149 °C
3,CCOC(=O)c1c(C)cc2c(=O)n(-c3cccc(Cl)c3)c(C)nc2c1C,150 to 152 °C
4,COc1cc2oc(=O)c3c(c2c(OC)c1OC)CCN(CC(C)=O)C3,114 to 116 °C
5,CCc1ccnc(C(=O)c2[nH]c3ccc(OC(F)(F)F)cc3c2CC(=O)O)c1,223 °C
6,O=C1C[C@@H]2[C@@H](/C=C/[C@H](CCc3ccccc3)OC3CCCCO3)[C@H](OC(=O)c3ccc(-c4ccccc4)cc3)C[C@@H]2O1 (some centres undefined),118 to 119 °C
7,Oc1ccc(-c2nc3ccc(O)cc3o2)cc1,> 300 °C
8,CCN1C(C(=O)Nc2coc3ccccc3c2=O)C(=O)c2ccccc2S1(=O)=O (centres undefined),235 to 237 °C
9,O=C(c1ccc(F)cc1)c1ccc(C(c2ccc(C(=O)c3ccc(F)cc3)cc2)(C(F)(F)F)C(F)(F)F)cc1,142 to 143 °C
10,CCCCCCCCC1CC1C(N)=O (centres undefined),109 to 110 °C
11,CCOC(=O)C(=CNc1cccc(N)c1)C(=O)OCC,71 to 74 °C
12,CCc1cccc(CC(=O)O)c1OCCCc1cn(-c2ccc(Cl)cn2)nc1C(C)C,142 to 143 °C
13,Cc1cc(Oc2ccc(S(C)(=O)=O)c(S(F)(F)(F)(F)F)c2)c(S(C)(=O)=O)cc1C(=O)NC(=N)N,275 °C
14,Fc1ccc(-c2ccc3[nH]c4c(ccc5cc[nH]c54)c3c2)c(F)c1,> 250 °C
15,O=C(NCCNCc1cc2cc(OCc3ccccc3)ccc2o1)C12CC3CC(CC(C3)C1)C2,169 to 170 °C
16,CCc1nn2c(N3CCN(C)CC3)cc(N3CCOCC3)nc2c1S(=O)(=O)c1ccccc1,> 250 °C
17,CN(C)CC(=O)NN=Cc1c(-c2ccccc2)nn2ccccc12,172 to 173 °C
18,CC(C)(C)OC(=O)NC(CNC(=O)Nc1ccccc1)C(=O)OCc1ccccc1 (centres undefined),48 to 50 °C
19,CC(=O)C1C(=O)CC(CCS(=O)c2ccc(C(F)(F)F)cc2)CC1=O (centres undefined),99 to 100 °C
20,CS(=O)(=O)c1cccc(NC(=O)c2cnn3c(C(F)F)cc(-c4ccc(C(F)(F)F)c(Cl)c4)nc23)c1,228 °C
21,CC(=O)OC(C(=O)c1cccnc1)c1cccnc1 (centres undefined),136 to 138 °C
22,CCCC(=O)Nc1n[nH]c2cc(C(F)(F)F)ccc12,200 °C
23,O=C(Nc1ccccc1)Nc1ccnc(C(F)(F)F)c1,169 to 171 °C
24,O=S(=O)(CCCCl)Nc1ccc(Oc2cccc3cccnc23)cc1,161 to 162 °C
